Source: PubChem BioAssay (NCI)
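Briefly, cells in 96-well plates were exposed to five compound concentrations for 48 h, and endpoints were estimated by linear interpolation. Here, GI50 denotes the concentration required for 50% inhibition of growth. TGI denotes the concentration required for complete inhibition of growth.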

Assays:
Experiment in all cases: NCI-60 cell line screen, 48 h
NCI-H23 lung = tested on: NCI-H23 lung
SNB-75 CNS = tested on: SNB-75 CNS
HL-60(TB) leukemia = tested on: HL-60(TB) leukemia
SN12C renal = tested on: SN12C renal
A498 renal = tested on: A498 renal
UO-31 renal = tested on: UO-31 renal
HCC-2998 colon = tested on: HCC-2998 colon
SK-MEL-5 melanoma = tested on: SK-MEL-5 melanoma
NCI/ADR-RES ovarian = tested on: NCI/ADR-RES ovarian
NCI-H522 lung = tested on: NCI-H522 lung
MCF7 breast = tested on: MCF7 breast
SK-MEL-2 melanoma = tested on: SK-MEL-2 melanoma
A549 NSCLC = tested on: A549 NSCLC
HOP-62 NSCLC = tested on: HOP-62 NSCLC
SK-OV-3 ovarian = tested on: SK-OV-3 ovarian
HT29 colon = tested on: HT29 colon
PC-3 prostate = tested on: PC-3 prostate
786-0 renal = tested on: 786-0 renal
CCRF-CEM leukemia = tested on: CCRF-CEM leukemia
HOP-92 NSCLC = tested on: HOP-92 NSCLC
NCI-H460 lung = tested on: NCI-H460 lung
SF-539 CNS = tested on: SF-539 CNS
RXF 393 renal = tested on: RXF 393 renal
K-562 leukemia = tested on: K-562 leukemia
SK-MEL-28 melanoma = tested on: SK-MEL-28 melanoma
OVCAR-5 ovarian = tested on: OVCAR-5 ovarian
BT-549 breast = tested on: BT-549 breast
RPMI-8226 leukemia = tested on: RPMI-8226 leukemia
MDA-MB-435 = tested on: MDA-MB-435
T-47D breast = tested on: T-47D breast
COLO 205 colon = tested on: COLO 205 colon
TK-10 renal = tested on: TK-10 renal
OVCAR-4 ovarian = tested on: OVCAR-4 ovarian
ACHN renal = tested on: ACHN renal
UACC-62 melanoma = tested on: UACC-62 melanoma
EKVX NSCLC = tested on: EKVX NSCLC
U251 CNS = tested on: U251 CNS
CAKI-1 renal = tested on: CAKI-1 renal
OVCAR-3 ovarian = tested on: OVCAR-3 ovarian
HCT-116 colon = tested on: HCT-116 colon
UACC-257 melanoma = tested on: UACC-257 melanoma
NCI-H226 lung = tested on: NCI-H226 lung
OVCAR-8 ovarian = tested on: OVCAR-8 ovarian
SF-295 CNS = tested on: SF-295 CNS
MDA-MB-231 breast = tested on: MDA-MB-231 breast
MOLT-4 leukemia = tested on: MOLT-4 leukemia
KM12 colon = tested on: KM12 colon
MALME-3M melanoma = tested on: MALME-3M melanoma
HCT-15 colon = tested on: HCT-15 colon
HS 578T breast = tested on: HS 578T breast
SNB-19 CNS = tested on: SNB-19 CNS
SF-268 CNS = tested on: SF-268 CNS
IGROV1 ovarian = tested on: IGROV1 ovarian
SR leukemia = tested on: SR leukemia
DU-145 prostate = tested on: DU-145 prostate
SW-620 colon = tested on: SW-620 colon
LOX IMVI melanoma = tested on: LOX IMVI melanoma

C#CCN(C)CCCOc1ccc(NC(=O)CCCCCCC(=O)NO)cc1Cl
GI50 (NCI-H23 lung): 2.44 µM | TGI (NCI-H23 lung): 18.9 µM | GI50 (SNB-75 CNS): 0.606 µM | TGI (SNB-75 CNS): 32.1 µM | GI50 (HL-60(TB) leukemia): 0.589 µM | TGI (HL-60(TB) leukemia): > 100 µM | GI50 (SN12C renal): 2.78 µM | TGI (SN12C renal): > 100 µM | GI50 (A498 renal): 1.16 µM | TGI (A498 renal): 3.04 µM | GI50 (UO-31 renal): 1.5 µM | TGI (UO-31 renal): 7.04 µM | GI50 (HCC-2998 colon): 1.47 µM | TGI (HCC-2998 colon): 4.23 µM | GI50 (SK-MEL-5 melanoma): 0.853 µM | TGI (SK-MEL-5 melanoma): 2.43 µM | GI50 (NCI/ADR-RES ovarian): 5.41 µM | TGI (NCI/ADR-RES ovarian): > 100 µM | GI50 (NCI-H522 lung): 0.431 µM | TGI (NCI-H522 lung): 8.2 µM | GI50 (MCF7 breast): 0.813 µM | TGI (MCF7 breast): 17.4 µM | GI50 (SK-MEL-2 melanoma): 3.05 µM | TGI (SK-MEL-2 melanoma): 21.8 µM | GI50 (A549 NSCLC): 2.14 µM | TGI (A549 NSCLC): 13.6 µM | GI50 (HOP-62 NSCLC): 1.85 µM | TGI (HOP-62 NSCLC): 24 µM | GI50 (SK-OV-3 ovarian): 1.54 µM | TGI (SK-OV-3 ovarian): 12.6 µM | GI50 (HT29 colon): 1.42 µM | TGI (HT29 colon): 43 µM | GI50 (PC-3 prostate): 1.53 µM | TGI (PC-3 prostate): > 100 µM | GI50 (786-0 renal): 3.52 µM | TGI (786-0 renal): 25.7 µM | GI50 (CCRF-CEM leukemia): 0.375 µM | TGI (CCRF-CEM leukemia): > 100 µM | GI50 (HOP-92 NSCLC): 0.725 µM | TGI (HOP-92 NSCLC): 4.56 µM | GI50 (NCI-H460 lung): 1.1 µM | TGI (NCI-H460 lung): > 100 µM | GI50 (SF-539 CNS): 1.66 µM | TGI (SF-539 CNS): 17 µM | GI50 (RXF 393 renal): 0.272 µM | TGI (RXF 393 renal): 1.11 µM | GI50 (K-562 leukemia): 0.549 µM | TGI (K-562 leukemia): > 100 µM | GI50 (SK-MEL-28 melanoma): 1.44 µM | TGI (SK-MEL-28 melanoma): 11.3 µM | GI50 (OVCAR-5 ovarian): 1.7 µM | TGI (OVCAR-5 ovarian): 45.7 µM | GI50 (BT-549 breast): 3.48 µM | TGI (BT-549 breast): 30 µM | GI50 (RPMI-8226 leukemia): 1.05 µM | TGI (RPMI-8226 leukemia): 6.78 µM | GI50 (MDA-MB-435): 0.835 µM | TGI (MDA-MB-435): 5.97 µM | GI50 (T-47D breast): 0.608 µM | TGI (T-47D breast): > 100 µM | GI50 (COLO 205 colon): 0.648 µM | TGI (COLO 205 colon): 2.45 µM | GI50 (TK-10 renal): 1.41 µM | TGI (TK-10 renal): 11 µM | GI50 (OVCAR-4 ovarian): 4.41 µM | TGI (OVCAR-4 ovarian): > 100 µM | GI50 (ACHN renal): 2.82 µM | TGI (ACHN renal): 12.7 µM | GI50 (UACC-62 melanoma): 0.57 µM | TGI (UACC-62 melanoma): 4.18 µM | GI50 (EKVX NSCLC): 3.47 µM | TGI (EKVX NSCLC): > 100 µM | GI50 (U251 CNS): 1.41 µM | TGI (U251 CNS): 7.21 µM | GI50 (CAKI-1 renal): 1.65 µM | TGI (CAKI-1 renal): 8.08 µM | GI50 (OVCAR-3 ovarian): 1.48 µM | TGI (OVCAR-3 ovarian): 13.2 µM | GI50 (HCT-116 colon): 0.437 µM | TGI (HCT-116 colon): 6.26 µM | GI50 (UACC-257 melanoma): 0.587 µM | TGI (UACC-257 melanoma): 13.4 µM | GI50 (NCI-H226 lung): 4.13 µM | TGI (NCI-H226 lung): 30.6 µM | GI50 (OVCAR-8 ovarian): 0.793 µM | TGI (OVCAR-8 ovarian): > 100 µM | GI50 (SF-295 CNS): 1.68 µM | TGI (SF-295 CNS): 4.71 µM | GI50 (MDA-MB-231 breast): 1.83 µM | TGI (MDA-MB-231 breast): 16.4 µM | GI50 (MOLT-4 leukemia): 0.338 µM | TGI (MOLT-4 leukemia): > 100 µM | GI50 (KM12 colon): 1.91 µM | TGI (KM12 colon): 15.9 µM | GI50 (MALME-3M melanoma): 0.373 µM | TGI (MALME-3M melanoma): 28.4 µM | GI50 (HCT-15 colon): 5.03 µM | TGI (HCT-15 colon): > 100 µM | GI50 (HS 578T breast): 1.15 µM | TGI (HS 578T breast): 7.31 µM | GI50 (SNB-19 CNS): 2.26 µM | TGI (SNB-19 CNS): 17.7 µM | GI50 (SF-268 CNS): 2.92 µM | TGI (SF-268 CNS): 16.4 µM | GI50 (IGROV1 ovarian): 1.23 µM | TGI (IGROV1 ovarian): 4.34 µM | GI50 (SR leukemia): 0.53 µM | TGI (SR leukemia): > 100 µM | GI50 (DU-145 prostate): 1.68 µM | TGI (DU-145 prostate): > 100 µM | GI50 (SW-620 colon): 0.698 µM | TGI (SW-620 colon): 4.31 µM | TGI (LOX IMVI melanoma): 0.12 µM
